{"source": "patent US8197872B2", "about": "“Human milk oligosaccharides to promote growth of beneficial gut bacteria” (The Regents of the University of California, priority 2007, dated 2012)", "key": {"[1]": {"test_system": "sialidase (EC 3.2.1.18) of B. longum DJO10A", "assay": "Glycosyl hydrolase assay, sialidase in cell-free extract", "type": "cell-based", "details": "cells grown with 1% (w/v) of the substance as sole carbon source", "procedure": "(§1) Assayed cells were incubated anaerobically at 37° C. on semi-synthetic MRS medium (Barrangou et al., Proceedings of the National Academy of Sciences of the United States of America (2003) 100: 8957-8962), with 1% (w/v) sterile filtered lactose or HMO as the sole carbon source. Early stationary phase cells were harvested and 200 mg of 0.1 mm diameter glass beads (BioSpec Products, Bartlesville, Okla.) were added to the suspensions which were subjected to two cycles of 45 s at power 6.0 m s^−1 on a FastPrep FP120 cell disruptor (Qbiogene, Morgan Irvine, Calif.). The beads and cell debris were removed by centrifugation. Cell-free extracts were collected and kept temporarily on ice until the start of the enzyme assays. Protein concentrations were determined according to the Bradford method using bovine serum albumin as the standard (Bradford, M. M., Analytical Biochemistry (1976) 72, (1-2), 248-254). Activity of α-L-fucosidase (EC 3.2.1.51) and sialidase (EC 3.2.1.18) were assayed with the fluorogenic substrates, 4-methylumbelliferyl α-L-fucopyranoside and 2′-(4-methylumbelliferyl) α-D-N-acetylneuraminic acid respectively. Fucosidase activity was assayed with a fluorogenic substrate concentration of 1 mM in 0.2 M phosphate-citrate buffer (pH 5.2), while the sialidase assay employed 0.5 mM of substrate mixed in equal volume with 50 μl 0.25 M sodium acetate-acetic acid buffer (pH 4.3). The reaction mixture containing 100 μl of cell-free extract and 100 μL substrate solution were incubated for 1 hr at 37° C. with the reaction stopped with 1.3 mL of 0.17 M glycine-carbonate buffer, pH 9.8. The fluorescence of enzymatically liberated 4-methylumbelliferone was determined in a Bio-Rad VersaFluor fluorometer (Eureka, Calif.) by excitation at 360 nm and emission measured at 460 nm. Serially diluted 4-methylumbelliferone was used to calibrate relative fluorescence units with substrate concentration. The specific activity of the glycosyl hydrolase was expressed as nanomoles of hydrolyzed substrate per milligram of protein per hour. Assays were performed in duplicates and the standard error was reported."}, "[2]": {"test_system": "sialidase (EC 3.2.1.18) of B. breve ATCC 15700", "assay": "Glycosyl hydrolase assay, sialidase in cell-free extract", "type": "cell-based", "details": "cells grown with 1% (w/v) of the substance as sole carbon source", "procedure": "as §1"}, "[3]": {"test_system": "sialidase (EC 3.2.1.18) of B. infantis ATCC 15697", "assay": "Glycosyl hydrolase assay, sialidase in cell-free extract", "type": "cell-based", "procedure": "as §1"}, "[4]": {"test_system": "B. longum bv. longum DJO10A", "assay": "FTICR-MS HMO consumption glycoprofiling of bacterial fermentation", "type": "cell-based, Bifidobacterium longum bv. longum", "details": "45 hrs", "source_text": "(§2) Bifidobacterium longum bv. infantis ATCC 15697 and B. breve ATCC 15700 were obtained from the American Type Culture Collection (Manassas, Va.), B. longum bv. longum DJO10A was from D. O'Sullivan, University of Minnesota. Cultures were initially propagated in deMan, Rogosa, Sharpe broth (Becton Dickinson, Sparks, Md.) then grown twice on a semi-synthetic MRS medium, devoid of a carbohydrate source (Barrangou et al., Proceedings of the National Academy of Sciences of the United States of America (2003) 100, (15), 8957-8962). This medium was supplemented with 2.0% (w/v) sterile filtered (Millex-GV, 0.22 μm, Millipore, Billerica, Mass.) HMO as the only carbohydrate source. […] Cell growth was measured by assessing optical density at 600 nm with a ND-1000 Spectrophotometer (NanoDrop Technologies, Wilmington, Del.). […]\n(§3) All mass spectra were acquired on a HiResESI QFT-hybrid Fourier transform ion cyclotron resonance mass spectrometer with a 9.4 Tesla shielded superconducting magnet (IonSpec Corp., Irvine, Calif.). […] Ion excitation was performed by arbitrary waveform with amplitude of 125.0 V (base-to-peak) and detected by direct broadband mode at a rate of 1 MHz and 512K data points. Each spectrum was recorded with one acquisition scan in the positive ion mode.\n(§4) The D/H ratios were calculated using Formula 1 adapted from Xie et al. (Xie et al., Analytical Chemistry (2004) 76, (17), 5186-5197). […]"}, "B. breve ATCC 15700": {"test_system": "B. breve ATCC 15700", "assay": "FTICR-MS HMO consumption glycoprofiling of bacterial fermentation", "type": "cell-based, Bifidobacterium breve", "details": "45 hrs", "source_text": "as §2, §3, §4"}, "[5]": {"details": "media supplemented with 2.0% (w/v) HMO"}}}
{"smiles": "OC[C@H]1O[C@@H](O[C@H]2[C@H](O)[C@@H](O)C(O)O[C@@H]2CO)[C@H](O)[C@@H](O)[C@H]1O", "note": "(stereo partly drawn) [lactose]", "values": [{"measurement": "Sialidase", "setting": "[1]", "value": "0.65 ± 0.03", "unit": "nmol/min/mg protein"}, {"measurement": "Sialidase", "setting": "[2]", "value": "0.32 ± 0.03", "unit": "nmol/min/mg protein"}, {"measurement": "Sialidase", "setting": "[3]; cells grown with 1% (w/v) of the substance as sole carbon source", "value": "10.8 ± 1.0", "unit": "nmol/min/mg protein"}, {"measurement": "higher sialidase activity of B. longum bv. infantis compared to B. breve", "setting": "[3]; grown on lactose", "value": 33.7, "unit": "fold"}, {"measurement": "higher sialidase activity of B. longum bv. infantis compared to B. longum", "setting": "[3]; grown on lactose", "value": 16.6, "unit": "fold"}]}
{"smiles": "CC(=O)N[C@H]1[C@H](O[C@H]2[C@@H](O)[C@@H](CO)O[C@@H](O[C@H]3[C@H](O)[C@@H](O)C(O)O[C@@H]3CO)[C@@H]2O)O[C@H](CO)[C@@H](O)[C@@H]1O[C@@H]1O[C@H](CO)[C@H](O)[C@H](O)[C@H]1O", "note": "(stereo partly drawn) [lacto-N-tetraose]", "values": [{"measurement": "consumption of the overall detectable HMO pool represented by LNT metabolism", "setting": "[4]; 2.0% (w/v) HMO", "value": 7.3, "unit": "%"}, {"measurement": "consumption of the HMO species", "setting": "[4]; [5]", "value": 35.2, "unit": "%"}, {"measurement": "consumption of the overall detectable HMO pool represented by LNT metabolism", "setting": "B. breve ATCC 15700; 2.0% (w/v) HMO", "value": 5.1, "unit": "%"}, {"measurement": "consumption of the HMO species", "setting": "B. breve ATCC 15700; [5]", "value": 24.4, "unit": "%"}]}
